Measurements as given in patent US11439618B2, “Compositions and methods for lowering triglycerides” (Amarin Pharmaceuticals Ireland Limited, priority 2009, dated 2022).

Test: Essential fatty acid (EFA) parameters in plasma and RBC, gas chromatography of fatty acid methyl esters
Type: in vivo, human
Description: Blood samples (10 mL) were collected at Visit 1 (screening) and at Visits 4, 5 and 6. Analysis was performed by MSR Lipid Analysis, Scottish Crop Research Institute, Dundee, UK. The screening sample acted as baseline for the EFA measurements. Lipid was extracted from plasma, serum and RBC suspensions and converted into fatty acid methyl esters which were analyzed by gas chromatography to give fatty acid profiles as micrograms fatty acid per gram of sample (μgFA/g) and normalized area percent.
RBC and plasma EFA data were collected at baseline, Day 14, 28 and 42 and summarized by visit for each treatment group. Change from baseline and percent change from baseline were also summarized. ANCOVA comparison of ethyl-EPA dose groups and ethyl-EPA versus placebo was performed.
Notable changes for these parameters occurred in the ethyl-EPA treatment groups at Days 14, 28 and 42 compared to placebo.

[1] = plasma, 1 g daily group, Baseline
[2] = plasma, 2 g daily group, Baseline
[3] = plasma, 4 g daily group, Baseline

CC/C=C\C/C=C\C/C=C\C/C=C\C/C=C\CCCC(=O)OCC [Ethyl-EPA, all-cis eicosa-5,8,11,14,17-pentaenoic acid ethyl ester]
EPA, DPAn-3 and EPA/AA ratio values, change from baseline (plasma and RBC, to Day 42, 1, 2 and 4 g): increased substantially from baseline
AA, DHA and DGLA values, change from baseline (plasma and RBC, to day 42, 1, 2 and 4 g): decreased substantially from baseline
AA Mean at Baseline [1]: 202.5 µg/g
DGLA Mean at Baseline [1]: 51.2 µg/g
DHA Mean at Baseline [1]: 73.1 µg/g
DPAn-3 Mean at Baseline [1]: 21.1 µg/g
EPA Mean at Baseline [1]: 48.3 µg/g
EPA/AA Mean (SD) at Baseline [1]: 0.2 (0.14)
AA Mean change from Baseline (plasma, 1 g daily, Day 14): -9.7 µg/g
DGLA Mean change from Baseline (plasma, 1 g daily, Day 14): -10.4 µg/g
DHA Mean change from Baseline (plasma, 1 g daily, Day 14): -6.4 µg/g
DPAn-3 Mean change from Baseline (plasma, 1 g daily, Day 14): 7.5 µg/g
EPA Mean change from Baseline (plasma, 1 g daily, Day 14): 61.2 µg/g
EPA/AA Mean (SD) change from Baseline (plasma, 1 g daily, Day 14): 0.3 (0.4)
AA Mean change from Baseline (plasma, 1 g daily, Day 28): -11.3 µg/g
DGLA Mean change from Baseline (plasma, 1 g daily, Day 28): -10.6 µg/g
DHA Mean change from Baseline (plasma, 1 g daily, Day 28): -6.6 µg/g
DPAn-3 Mean change from Baseline (plasma, 1 g daily, Day 28): 8.9 µg/g
EPA Mean change from Baseline (plasma, 1 g daily, Day 28): 60.3 µg/g
EPA/AA Mean (SD) change from Baseline (plasma, 1 g daily, Day 28): 0.3 (0.20)
AA Mean change from Baseline (plasma, 1 g daily, Day 42): -8.7 µg/g
DGLA Mean change from Baseline (plasma, 1 g daily, Day 42): -9.4 µg/g
DHA Mean change from Baseline (plasma, 1 g daily, Day 42): -5.4 µg/g
DPAn-3 Mean change from Baseline (plasma, 1 g daily, Day 42): 11.3 µg/g
EPA Mean change from Baseline (plasma, 1 g daily, Day 42): 62.0 µg/g
EPA/AA Mean (SD) change from Baseline (plasma, 1 g daily, Day 42): 0.3 (0.24)
AA LS Mean, 1 or 2 g versus 4 g (plasma, 1 g versus 4 g): 4.2 µg/g
DGLA LS Mean, 1 or 2 g versus 4 g (plasma, 1 g versus 4 g): 3.7 µg/g
DHA LS Mean, 1 or 2 g versus 4 g (plasma, 1 g versus 4 g): -0.8 µg/g
DPAn-3 LS Mean, 1 or 2 g versus 4 g (plasma, 1 g versus 4 g): -15.1 µg/g
EPA LS Mean, 1 or 2 g versus 4 g (plasma, 1 g versus 4 g): -111.8 µg/g
EPA/AA LS Mean, 1 or 2 g versus 4 g (plasma, 1 g versus 4 g): −0.66
AA Mean at Baseline [2]: 227.3 µg/g
DGLA Mean at Baseline [2]: 53.5 µg/g
DHA Mean at Baseline [2]: 75.1 µg/g
DPAn-3 Mean at Baseline [2]: 19.7 µg/g
EPA Mean at Baseline [2]: 4.49 µg/g
EPA/AA Mean at Baseline [2]: 0.2
AA Mean change from Baseline (plasma, 2 g daily, Day 14): -13.9 µg/g
DGLA Mean change from Baseline (plasma, 2 g daily, Day 14): -14.1 µg/g
DHA Mean change from Baseline (plasma, 2 g daily, Day 14): -5.4 µg/g
DPAn-3 Mean change from Baseline (plasma, 2 g daily, Day 14): 17.4 µg/g
EPA Mean change from Baseline (plasma, 2 g daily, Day 14): 124.6 µg/g
EPA/AA Mean change from Baseline (plasma, 2 g daily, Day 14): 0.6
AA Mean change from Baseline (plasma, 2 g daily, Day 28): 21.6 µg/g
DGLA Mean change from Baseline (plasma, 2 g daily, Day 28): -16.2 µg/g
DHA Mean change from Baseline (plasma, 2 g daily, Day 28): -8.1 µg/g
DPAn-3 Mean change from Baseline (plasma, 2 g daily, Day 28): 19.4 µg/g
EPA Mean change from Baseline (plasma, 2 g daily, Day 28): 142.2 µg/g
EPA/AA Mean change from Baseline (plasma, 2 g daily, Day 28): 0.8
AA Mean change from Baseline (plasma, 2 g daily, Day 42): -27.3 µg/g
DGLA Mean change from Baseline (plasma, 2 g daily, Day 42): -17.3 µg/g
DHA Mean change from Baseline (plasma, 2 g daily, Day 42): -6.0 µg/g
DPAn-3 Mean change from Baseline (plasma, 2 g daily, Day 42): 19.3 µg/g
EPA Mean change from Baseline (plasma, 2 g daily, Day 42): 133.4 µg/g
EPA/AA Mean change from Baseline (plasma, 2 g daily, Day 42): 0.7
AA LS Mean, 1 or 2 g versus 4 g (plasma, 2 g versus 4 g): 15.6 µg/g
DGLA LS Mean, 1 or 2 g versus 4 g (plasma, 2 g versus 4 g): 2.5 µg/g
DHA LS Mean, 1 or 2 g versus 4 g (plasma, 2 g versus 4 g): 1.5 µg/g
DPAn-3 LS Mean, 1 or 2 g versus 4 g (plasma, 2 g versus 4 g): -9.5 µg/g
EPA LS Mean, 1 or 2 g versus 4 g (plasma, 2 g versus 4 g): -60.9 µg/g
EPA/AA LS Mean, 1 or 2 g versus 4 g (plasma, 2 g versus 4 g): −0.41
AA Mean (SD) at Baseline [3]: 220.9 (42.80) μg/g
DGLA Mean at Baseline [3]: 57.1 µg/g
DHA Mean at Baseline [3]: 78.8 µg/g
DPAn-3 Mean at Baseline [3]: 21.7 µg/g
EPA Mean at Baseline [3]: 49.1 µg/g
EPA/AA Mean (SD) at Baseline [3]: 0.2 (0.07)
AA Mean (SD) change from Baseline (plasma, 4 g daily, Day 14): −27.2 (28.89) μg/g
DGLA Mean change from Baseline (plasma, 4 g daily, Day 14): -22.9 µg/g
DHA Mean change from Baseline (plasma, 4 g daily, Day 14): -10.3 µg/g
DPAn-3 Mean change from Baseline (plasma, 4 g daily, Day 14): 24.5 µg/g
EPA Mean change from Baseline (plasma, 4 g daily, Day 14): 207.7 µg/g
EPA/AA Mean (SD) change from Baseline (plasma, 4 g daily, Day 14): 1.1 (0.28)
AA Mean (SD) change from Baseline (plasma, 4 g daily, Day 28): −43.7 (32.24) μg/g
DGLA Mean change from Baseline (plasma, 4 g daily, Day 28): -24.2 µg/g
DHA Mean change from Baseline (plasma, 4 g daily, Day 28): -13.5 µg/g
DPAn-3 Mean change from Baseline (plasma, 4 g daily, Day 28): 29.7 µg/g
EPA Mean change from Baseline (plasma, 4 g daily, Day 28): 215.2 µg/g
EPA/AA Mean (SD) change from Baseline (plasma, 4 g daily, Day 28): 1.3 (0.42)
AA Mean (SD) change from Baseline (plasma, 4 g daily, Day 42): −48.3 (22.20) μg/g
DGLA Mean change from Baseline (plasma, 4 g daily, Day 42): -22.5 µg/g
DHA Mean change from Baseline (plasma, 4 g daily, Day 42): -13.8 µg/g
DPAn-3 Mean change from Baseline (plasma, 4 g daily, Day 42): 32.0 µg/g
EPA Mean change from Baseline (plasma, 4 g daily, Day 42): 204.6 µg/g
EPA/AA Mean (SD) change from Baseline (plasma, 4 g daily, Day 42): 1.3 (0.45)
